According to US20190192699A1, “NUCLEAR IMAGING AND RADIOTHERAPEUTICS AGENTS TARGETING CARBONIC ANHYDRASE IX AND USES THEREOF” (THE JOHNS HOPKINS UNIVERSITY, priority 2016, published 2019):
Several values for one entry are separate records, joined by “and”; a condition that tells them apart may be missing. Identical values can stand only once. Entries after “also recorded” stand apart in the source; their conditions may differ.

How the values were obtained:
[1] = tested on: CAIX-expressing SK-RC-52 tumors; assay: PET/CT imaging of [Al18F]XYIMSR-04; format: in vivo, mice; details: 7.4 MBq (200 μCi) via tail vein
Method: (§1) Cell Lines and Mouse Models. Animal experiments were performed in accordance with protocols approved by the Johns Hopkins Animal Care and Use Committee (ACUC). Six-week-old female NOD/SCID mice were purchased from the Animal Resource Core of the Sidney Kimmel Comprehensive Cancer Center of Johns Hopkins and were subcutaneously injected in the lower left flank or upper right flank with 1×10^6 SK-RC-52 cells in RPMI 1640 GlutaMAX™ media (Life Technologies, Frederick, Md.) supplemented with 1% fetal bovine serum (FBS). Mice were monitored for tumor size and used for SPECT/CT imaging when the size of the tumor reached 100 mm^3.
PET/CT imaging of [Al^18F]XYIMSR-04. Mice harboring subcutaneous SK-RC-52 tumors with the lower left flank were injected with 7.4 MBq (200 μCi) of [Al^18F]XYIMSR-04 in 250 μL of PBS (pH=7.0) intravenously (tail vein). Anesthesia was then induced with 3% isofluorane and maintained at 2% isoflurane. Physiologic temperature was maintained with an external light source while the mouse was on the gantry. […] Whole body 2-bed PET scan was performed using ARGUS small-animal PET/CT scanner (Sedecal, Madrid, Spain) at 250-700 keV energy window. PET acquisition times were: 5 min/bed (1 h) post-injection of [Al^18F]XYIMSR-04. PET images were co-registered with the corresponding 360-slice CT images. […]

[2] = tested on: SK-RC-52 xenografts; assay: Biodistribution of [Al18F]XYIMSR-04; format: in vivo, mice; details: 1 h post-injection
Method: as §1
Biodistribution of [Al^18F]XYIMSR-04. Mice bearing SK-RC-52 xenografts within the lower left flank were injected intravenously with 740 kBq (20 μCi) of [Al^18F]XYIMSR-04 in 200 μL of PBS. At specific 1 hour time point mentioned in the paper, mice (n=5) were sacrificed by cervical dislocation and the blood was immediately collected by cardiac puncture. Heart, lungs, pancreas, spleen, fat, brain, muscle, small intestines, liver, bone, stomach, kidney, urinary bladder, and tumor were collected. Each organ was weighed and the tissue radioactivity was measured with an automated gamma counter (1282 Compugamma CS, Pharmacia/LKBNuclear, Inc., Mt. Waverly, Vic. Australia). The percentage of injected dose per gram of tissue (% ID/g) was calculated by comparison with samples of a standard dilution of the initial dose. All measurements were corrected for radioactive decay. Data were expressed as mean±standard deviation (SD). Prism software (GraphPAD, San Diego, Calif.) was used to determine statistical significance. Statistical significance was calculated using a paired t test. P-values […] were considered significant.

For `CC(CCC(=O)N[C@@H](CC(=O)N[C@@H](CC(=O)N[C@@H](CCCCn1cc(CCCC(=O)Nc2nnc(S(N)(=O)=O)s2)nn1)C(=O)NCCOCCOCCNC(=O)CN1CCN2CCN(CC1)CC(=O)[O][Al]([18F])[O]C(=O)C2)C(=O)O)C(=O)O)(c1ccc(O)cc1)c1ccc(O)cc1` [[Al^18F]XYIMSR-04], the “PET/CT tumor imaging finding” value [1] was “radiotracer uptake in tumor at 1 h post-injection; also recorded: tumor visualization by 1 h post-injection”, the “Biodistribution: Bladder” value [2] was 20.12 ± 12.51 % ID/g and the “Biodistribution: Blood” value [2] was 0.65 ± 0.11 % ID/g. The “Biodistribution: Bone” value [2] was 1.91 ± 1.39 % ID/g, the “Biodistribution: Brain” value [2] was 0.66 ± 0.04 % ID/g and the “Biodistribution: Fat” value [2] was 1.54 ± 0.25 % ID/g. For the same compound, the “Biodistribution: Heart” value [2] was 5.03 ± 0.51 % ID/g, the “Biodistribution: Kidney (kid)” value [2] was 50.84 ± 2.65 % ID/g and the “Biodistribution: Liver” value [2] was 5.55 ± 0.91 % ID/g. For the same compound, the “Biodistribution: Lung” value [2] was 34.07 ± 5.85 % ID/g, the “Biodistribution: Muscle (mm)” value [2] was 1.74 ± 0.58 % ID/g and the “Biodistribution: Pancreas” value [2] was 3.47 ± 0.16 % ID/g. For the same compound, the “Biodistribution: Sm. intestine” value [2] was 9.59 ± 1.04 % ID/g, the “Biodistribution: Spleen” value [2] was 0.54 ± 0.18 % ID/g and the “Biodistribution: Stomach” value [2] was 21.62 ± 1.85 % ID/g. For the same compound, the “Biodistribution: Tumor” value [2] was 14.40 % ID/g and 14.40 ± 2.18 % ID/g, the Tumor/Blood ratio [2] was 22.1 and 22.1 ± 1.5 and the “Tumor/kid (kidney) ratio” value [2] was 0.28 and 0.28 ± 0.03. For the same compound, the “Tumor/mm (muscle) ratio” value [2] was 9.74 and 9.74 ± 2.9.
